According to ChEMBL document CHEMBL3227970, “The benzodiazepine story” (J Med Chem, 1979):
“And” between values parts separate entries of the source, which are not always exact repeats. Equal entries are not always repeated. The source made the active and inactive calls. No cut-off for these calls is given here.

Legend:
Mus musculus [1] = experiment: Induction of muscle relaxation/sedation in po dosed mouse by inclined screen test; assay type: functional
Mus musculus [2] = experiment: Anticonvulsant activity in po dosed mouse assessed as reduction of maximal electroshock-induced seizures; assay type: functional
Felis catus = experiment: Muscle relaxing activity in po dosed cat; assay type: functional
Mus musculus [3] = experiment: Anticonvulsant activity in po dosed mouse assessed as reduction of minimal electroshock-induced seizures; assay type: functional
Mus musculus [4] = experiment: Induction of taming effect in po dosed mouse by foot shock method; assay type: functional
Mus musculus [5] = experiment: Anticonvulsant activity in po dosed mouse assessed as reduction of pentylenetetrazole-induced seizures; assay type: functional
Rhesus monkey = experiment: Induction of taming effect in monkey by foot shock method; assay type: functional, organism-based; conditions: Macaca mulatta
Mus musculus [6] = organism: Mus musculus; experiment: Toxicity in mouse; assay type: organism-based; conditions: in vivo
Mus musculus [7] = organism: Mus musculus; experiment: Toxicity in mouse assessed as effect on central nervous system; assay type: organism-based; conditions: in vivo

Row | Structure (SMILES) | Activity (Mus musculus [1]) | Activity (Mus musculus [2]) [mg/kg] | Activity (Felis catus) [mg/kg] | Activity (Mus musculus [3]) [mg/kg] | Activity (Mus musculus [4]) [mg/kg] | Activity (Mus musculus [5]) [mg/kg] | Activity (Rhesus monkey) | Activity (Mus musculus [6]) [mg/kg] | Activity (Mus musculus [7])
1 | CN1C(=O)CN=C(c2ccccc2)c2cc(Cl)ccc21 [DIAZEPAM] | 75 mg/kg and 30 mg/kg | – | – | – | – | – | – | – | –
2 | CCC1(c2ccccc2)C(=O)NC(=O)NC1=O [PHENOBARBITAL] | 120 mg/kg | 18 | 10 | 90 | 80 | 75 | – | – | –
3 | O=C1C[N+]([O-])=C(c2ccccc2)c2cc(Cl)ccc2N1 [DEMOXEPAM] | 100 mg/kg | 150 | 2 | 150 | 20 | 15 | – | – | –
4 | CNC1=Nc2ccc(Cl)cc2C(c2ccccc2)=[N+]([O-])C1.Cl [CHLORDIAZEPOXIDE HYDROCHLORIDE] | 100 mg/kg | 92 | 2 | 150 | 40 | 18 | Active | 620 | Non-toxic
5 | CN(C)CCCN1c2ccccc2Sc2ccc(Cl)cc21 [CHLORPROMAZINE] | 17 mg/kg | 150 | 2.5 | 600 | 20 | 42 | – | – | Toxic
6 | CCCC(C)(COC(N)=O)COC(N)=O [MEPROBAMATE] | 250 mg/kg | 200 | 100 | 167 | 250 | 150 | – | – | –
7 | COC(=O)[C@H]1[C@H]2C[C@@H]3c4[nH]c5cc(OC)ccc5c4CCN3C[C@H]2C[C@@H](OC(=O)c2cc(OC)c(OC)c(OC)c2)[C@@H]1OC [RESERPINE] | – | – | – | – | – | – | – | – | Toxic
